# Reference: PubChem BioAssay (NCI)
#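 These data come from cells grown in 96-well plates and exposed to compound for 48 hours at five concentrations. GI50 marks 50% less growth. TGI denotes the concentration required for complete inhibition of growth.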 *1 amine or outer side, *2 acyl side, *3 side chain or, on linkers, in order; H or OH if unused. Where a SMILES comes first, the peptide text is derived from it. Bridges are numbered along the chain shown (N, C = ends). [ ]: non-standard residue; d: D form. The star is where a group is joined. ξ: configuration not given here. Phe(3,5-F2) = N[C@@H](Cc1cc(F)cc(F)c1)C(=O)O; ξThr(3S) = C[C@H](O[*:3])C(N[*:1])C(=O)[*:2]; X25 = C[C@H]1OCCN([*:1])[C@@H]1C(=O)[*:2]; Pro(4R-Me) = C[C@H]1CN[C@H](C(=O)O)C1; X24 = O=S(=O)(F)Oc1ccc(N*)cc1; CO = O=C([*:1])[*:2]
# How the values were obtained:
# Assay in all cases: NCI tumour cell line growth inhibition, 48 h
# RXF 393 renal = tested on: RXF 393 renal
# HCT-15 colon = tested on: HCT-15 colon
# K-562 leukemia = tested on: K-562 leukemia
# SR leukemia = tested on: SR leukemia
# NCI-H226 lung = tested on: NCI-H226 lung
# MDA-MB-435 = tested on: MDA-MB-435
# OVCAR-8 ovarian = tested on: OVCAR-8 ovarian
# SF-539 CNS = tested on: SF-539 CNS
# HL-60(TB) leukemia = tested on: HL-60(TB) leukemia
# NCI-H460 lung = tested on: NCI-H460 lung
# T-47D breast = tested on: T-47D breast
# U251 CNS = tested on: U251 CNS
# SNB-75 CNS = tested on: SNB-75 CNS
# UACC-257 melanoma = tested on: UACC-257 melanoma
# IGROV1 ovarian = tested on: IGROV1 ovarian
# HOP-62 NSCLC = tested on: HOP-62 NSCLC
# SF-295 CNS = tested on: SF-295 CNS
# SN12C renal = tested on: SN12C renal
# PC-3 prostate = tested on: PC-3 prostate
# 786-0 renal = tested on: 786-0 renal
# SK-MEL-5 melanoma = tested on: SK-MEL-5 melanoma
# ACHN renal = tested on: ACHN renal
# CCRF-CEM leukemia = tested on: CCRF-CEM leukemia
# MDA-MB-231 breast = tested on: MDA-MB-231 breast
# A549 NSCLC = tested on: A549 NSCLC
# UACC-62 melanoma = tested on: UACC-62 melanoma
# OVCAR-4 ovarian = tested on: OVCAR-4 ovarian
# SK-MEL-28 melanoma = tested on: SK-MEL-28 melanoma
# OVCAR-3 ovarian = tested on: OVCAR-3 ovarian
# UO-31 renal = tested on: UO-31 renal
# M14 melanoma = tested on: M14 melanoma
# SF-268 CNS = tested on: SF-268 CNS
# COLO 205 colon = tested on: COLO 205 colon
# HS 578T breast = tested on: HS 578T breast
# SK-OV-3 ovarian = tested on: SK-OV-3 ovarian
# MALME-3M melanoma = tested on: MALME-3M melanoma
# OVCAR-5 ovarian = tested on: OVCAR-5 ovarian
# SNB-19 CNS = tested on: SNB-19 CNS
# HT29 colon = tested on: HT29 colon
# HCT-116 colon = tested on: HCT-116 colon
# MCF7 breast = tested on: MCF7 breast
# KM12 colon = tested on: KM12 colon
# SK-MEL-2 melanoma = tested on: SK-MEL-2 melanoma
# NCI/ADR-RES ovarian = tested on: NCI/ADR-RES ovarian
# RPMI-8226 leukemia = tested on: RPMI-8226 leukemia
# SW-620 colon = tested on: SW-620 colon
# MOLT-4 leukemia = tested on: MOLT-4 leukemia
# NCI-H522 lung = tested on: NCI-H522 lung
# CAKI-1 renal = tested on: CAKI-1 renal
# HOP-92 NSCLC = tested on: HOP-92 NSCLC
# BT-549 breast = tested on: BT-549 breast
# TK-10 renal = tested on: TK-10 renal
# A498 renal = tested on: A498 renal
# DU-145 prostate = tested on: DU-145 prostate
# LOX IMVI melanoma = tested on: LOX IMVI melanoma
# EKVX NSCLC = tested on: EKVX NSCLC
# HCC-2998 colon = tested on: HCC-2998 colon
smiles,measurement,setting,value
"C[C@@H]1C[C@H]2C(=O)O[C@@H](C)C(NC(=O)[C@H](Cc3cc(F)cc(F)c3)NC(=O)Nc3ccc(OS(=O)(=O)F)cc3)C(=O)N3CCC[C@H]3C(=O)N3CCO[C@H](C)[C@H]3C(=O)N[C@@H](CO)C(=O)N2C1 (stereo partly drawn) ({X24-CO}-[Phe(3,5-F2)][ξThr(3S)]P[X25]S[Pro(4R-Me)]; ester 2-C)",GI50,RXF 393 renal,3.16 µM
same,TGI,RXF 393 renal,37.2 µM
same,GI50,HCT-15 colon,15.3 µM
same,TGI,HCT-15 colon,> 100 µM
same,GI50,K-562 leukemia,0.482 µM
same,TGI,K-562 leukemia,> 100 µM
same,GI50,SR leukemia,1.64 µM
same,TGI,SR leukemia,29.1 µM
same,GI50,NCI-H226 lung,2.3 µM
same,TGI,NCI-H226 lung,9.41 µM
same,GI50,MDA-MB-435,0.589 µM
same,TGI,MDA-MB-435,62 µM
same,GI50,OVCAR-8 ovarian,2.66 µM
same,TGI,OVCAR-8 ovarian,> 100 µM
same,GI50,SF-539 CNS,2.44 µM
same,TGI,SF-539 CNS,> 100 µM
same,GI50,HL-60(TB) leukemia,0.335 µM
same,TGI,HL-60(TB) leukemia,3.18 µM
same,GI50,NCI-H460 lung,2.39 µM
same,TGI,NCI-H460 lung,> 100 µM
same,GI50,T-47D breast,0.633 µM
same,TGI,T-47D breast,> 100 µM
same,GI50,U251 CNS,0.769 µM
same,TGI,U251 CNS,> 100 µM
same,GI50,SNB-75 CNS,0.53 µM
same,TGI,SNB-75 CNS,7.46 µM
same,GI50,UACC-257 melanoma,1.51 µM
same,TGI,UACC-257 melanoma,8.97 µM
same,GI50,IGROV1 ovarian,2.67 µM
same,TGI,IGROV1 ovarian,> 100 µM
same,GI50,HOP-62 NSCLC,2.81 µM
same,TGI,HOP-62 NSCLC,> 100 µM
same,GI50,SF-295 CNS,3.27 µM
same,TGI,SF-295 CNS,13.1 µM
same,GI50,SN12C renal,1.36 µM
same,TGI,SN12C renal,> 100 µM
same,GI50,PC-3 prostate,1.01 µM
same,TGI,PC-3 prostate,> 100 µM
same,GI50,786-0 renal,4.54 µM
same,TGI,786-0 renal,> 100 µM
same,GI50,SK-MEL-5 melanoma,3.09 µM
same,TGI,SK-MEL-5 melanoma,11.6 µM
same,GI50,ACHN renal,10.1 µM
same,TGI,ACHN renal,35.3 µM
same,GI50,CCRF-CEM leukemia,0.591 µM
same,TGI,CCRF-CEM leukemia,> 100 µM
same,GI50,MDA-MB-231 breast,0.642 µM
same,TGI,MDA-MB-231 breast,20.4 µM
same,GI50,A549 NSCLC,4.63 µM
same,TGI,A549 NSCLC,> 100 µM
same,GI50,UACC-62 melanoma,1.75 µM
same,TGI,UACC-62 melanoma,64.7 µM
same,GI50,OVCAR-4 ovarian,2.38 µM
same,TGI,OVCAR-4 ovarian,> 100 µM
same,GI50,SK-MEL-28 melanoma,2.3 µM
same,TGI,SK-MEL-28 melanoma,> 100 µM
same,GI50,OVCAR-3 ovarian,0.622 µM
same,TGI,OVCAR-3 ovarian,23.7 µM
same,GI50,UO-31 renal,23.7 µM
same,TGI,UO-31 renal,> 100 µM
same,GI50,M14 melanoma,2.76 µM
same,TGI,M14 melanoma,22.4 µM
same,GI50,SF-268 CNS,1.33 µM
same,TGI,SF-268 CNS,> 100 µM
same,GI50,COLO 205 colon,0.683 µM
same,TGI,COLO 205 colon,3.17 µM
same,GI50,HS 578T breast,0.916 µM
same,TGI,HS 578T breast,> 100 µM
same,GI50,SK-OV-3 ovarian,2.49 µM
same,TGI,SK-OV-3 ovarian,8.45 µM
same,GI50,MALME-3M melanoma,3.23 µM
same,TGI,MALME-3M melanoma,45.2 µM
same,GI50,OVCAR-5 ovarian,3.58 µM
same,TGI,OVCAR-5 ovarian,26.8 µM
same,GI50,SNB-19 CNS,0.598 µM
same,TGI,SNB-19 CNS,> 100 µM
same,GI50,HT29 colon,2.69 µM
same,TGI,HT29 colon,18.6 µM
same,GI50,HCT-116 colon,0.452 µM
same,TGI,HCT-116 colon,14.3 µM
same,GI50,MCF7 breast,0.454 µM
same,TGI,MCF7 breast,64.7 µM
same,GI50,KM12 colon,4.39 µM
same,TGI,KM12 colon,> 100 µM
same,GI50,SK-MEL-2 melanoma,0.419 µM
same,TGI,SK-MEL-2 melanoma,3.59 µM
same,GI50,NCI/ADR-RES ovarian,> 100 µM
same,TGI,NCI/ADR-RES ovarian,> 100 µM
same,GI50,RPMI-8226 leukemia,0.346 µM
same,TGI,RPMI-8226 leukemia,2.36 µM
same,GI50,SW-620 colon,1.61 µM
same,TGI,SW-620 colon,> 100 µM
same,GI50,MOLT-4 leukemia,2.12 µM
same,TGI,MOLT-4 leukemia,29.6 µM
same,GI50,NCI-H522 lung,0.497 µM
same,TGI,NCI-H522 lung,9.3 µM
same,GI50,CAKI-1 renal,2.79 µM
same,TGI,CAKI-1 renal,34.8 µM
same,GI50,HOP-92 NSCLC,0.927 µM
same,TGI,HOP-92 NSCLC,7.57 µM
same,GI50,BT-549 breast,0.853 µM
same,TGI,BT-549 breast,24.8 µM
same,GI50,TK-10 renal,6.22 µM
same,TGI,TK-10 renal,> 100 µM
same,GI50,A498 renal,3.05 µM
same,TGI,A498 renal,69.4 µM
same,GI50,DU-145 prostate,3.48 µM
same,TGI,DU-145 prostate,> 100 µM
same,GI50,LOX IMVI melanoma,1.41 µM
same,TGI,LOX IMVI melanoma,> 100 µM
same,GI50,EKVX NSCLC,3.2 µM
same,TGI,EKVX NSCLC,> 100 µM
same,GI50,HCC-2998 colon,1.33 µM
same,TGI,HCC-2998 colon,18.7 µM
